The text below walks through data of patent publication US5158950A, “1,3-dithiol-2-ylidene derivatives and process for the preparation thereof” (Yuhan Corporation, Ltd., priority 1987, dated 1992).

The subject of series [1] is serum ALT activity induced by CCl4. Kind of series: Protective effect against acute hepatic damage induced by carbon tetrachloride (serum ALT). The format is in vivo. The following applies: Mus musculus; mice, 50 mg/kg oral, 6 h before CCl4 (50 ul/kg oral); ALT 24 h after CCl4; read-out: Inhibitory (%): protective effect against increase of serum ALT activity induced by CCl4. How it is done: Principle; Carbon tetrachloride (CCl4) is a well-known hepatotoxic agent, thus widely used to produce experimental animal models for screening the potential drugs acting upon hepatic diseases. In this experiment test compounds were administered to mice prior to treatment with CCl4. 24 Hours after the CCl4 treatment, the animals were sacrificed and serum alanine aminotransferase (ALT) levels were determined. The hepatoprotective effect of a test compound was evaluated by the suppressive action against the increase of serum ALT induced by CCl4.
Method; The experimental animals were divided into normal, CCl4 treated and test compound treated groups. Each group consisted of 8 mice with body weight of 20-25 grams. The test compounds were suspended in 0.2% sodium carboxy methyl cellulose (CMC-Na) solution and administered orally at the dose of 50 mg/125 ml/kg body weight. Only the vehicle, 0.2% CMC-Na solution, was administered to the normal and to the CCl4 treated group instead of the test compound suspension. 6 Hours after the drug administration, the CCl4 solution in olive oil was administered orally to the CCl4 treated- and the test compound treated group at the dose of 50 ul/25 ml olive oil/kg body weight. The normal group was administered olive oil only at the same dose. 24 Hours after the CCl4 administration, blood samples were collected from the orbital sinus of the animals and the sera were obtained by centrifugation The serum ALT activities were monitored using an automatic blood analyzer (Gilford, SBA 300). The hepatoprotective effect of the test compounds was expressed by the suppressive percentage against the increase of serum ALT level induced by CCl4 calculated by the following formula; [formula]

Series [2] deals with serum ALT level after CCl4 treatment. Briefly: Determination of 50% inhibitory dose (ID50) against CCl4-induced serum ALT increase. The format is in vivo. The following applies: Mus musculus; mice, oral, 6 h before CCl4; estimated from dose-response curve at 50, 25, 12.5, 6.25 mg/kg. As to the method: Principle The various doses of test compounds were administered to mice, followed by the treatment with CCl4 after 6 hours. 24 Hours after the CCl4 treatment, the serum ALT level of the animals were determined. The hepatoprotective effect of the test compounds and the doses were plotted to form dose-response curves. The ID50 doses of the test compounds were estimated from the dose-response curves.
Method; The experimental animals were divided into normal, CCl4 treated and test compound treated groups. Each group consisted of 8 mice with body weight of 20-25 grams. The test compounds were suspended in 0.2% CMC-Na solution and administered orally at a dose of 50 mg, 25 mg, 12.5 mg, or 6.25 mg/125 ml/kg body weight. Only the vehicle, 0.2% CMC-Na solution, was administered to the normal and to the CCl4 treated group instead of the test compound suspension. 6 Hours after the drug administration, the CCl4 solution in olive oil was administered orally to the CCl4 treated and the test compound treated groups at the dose of 50 ul/25 ml olive oil/kg body weight. The normal group was administered olive oil only at the same dose. 24 Hours after the CCl4 administration, blood samples were collected from the orbital sinus of the animals and the sera were obtained by centrifugation. The serum ALT activities were monitored and the hepatoprotective effect of the test compounds were calculated by the same method as described in experiment 1. The inhibitory percentages were plotted against the corresponding doses of the test compounds to make dose-response curves. The 50% inhibitory dose of test compound was estimated from the dose-response curve.

Series [3] can be described thus: Acute oral toxicity, median lethal dose (LD50). The following applies: mouse, in vivo, male ICR mice, deaths counted for 14 days. As to the method: Each test compound was suspended in a 0.2% CMC-Na solution in various concentrations to make test suspension. The test suspensions were administered orally to male ICR mice (10 in each group) at various doses. The number of dead mice was counted for 14 days and the value of mediam lethal dose (LD50, g/kg) was calculated by the Hitchifield-Wilcoxon method.

The structures appear in SMILES notation. Some results are limits rather than exact numbers.

A word on the ED50: it is the dose that gives a 50% effect, or the effect in half of the subjects. As a reminder, the LD50 is the dose expected to kill half of the subjects tested. Low readings indicate a more toxic substance, high ones a less toxic substance. Consider `Cc1cccc(NC(=O)C(C(=O)OC(C)C)=C2SC=CS2)n1` [18(f), Isopropyl 2-(1,3-dithiol-2-ylidene)-2-[N-(6-methyl-2-pyridyl)carbamoyl]acetate], for which the inhibition in vivo at 50 mg/kg in series [1] came to 100%. For the same compound, the ED50 in series [2] is 12.5 mg/kg. Besides, the LD50 at 336 h in series [3] is > 5000 mg/kg.
Taken in the same sequence, the figures for `CCOC(=O)C(C(=O)NC1CCSC1=O)=C1SC=CS1` (centres unmarked) [14(b), Ethyl 2-(1,3-dithiol-2-ylidene)-2-[N-(tetrahydrothiophen-2-on-3-yl)carbamoyl]acetate] were 88.7%, 25 mg/kg and > 4000 mg/kg.
With `CCC(C)OC(=O)C(C(=O)Nc1nccs1)=C1SC=CS1` (centres unmarked) [19(c), sec-Butyl 2-(1,3-dithiol-2-ylidene)-2-[N-(2-thiazolyl)-carbamoyl]acetate], the inhibition in vivo at 50 mg/kg in series [1] turned out to be 100%. Further, the median effective dose (ED50) in series [2] is < 6.25 mg/kg.
For the compound `CC(C)OC(=O)C(C(=O)Nc1ccc(Cl)cn1)=C1SC=CS1` [18(g)], the inhibition in vivo at 50 mg/kg in series [1] is 77.3%. In addition, in series [2], the ED50 was 25 mg/kg. Further, the LD50 at 336 h in series [3] is > 5000 mg/kg.
For `Cc1csc(NC(=O)C(C(=O)OC(C)C)=C2SC=CS2)n1` [19(d), Isopropyl 2-(1,3-dithiol-2-ylidene)-2-[N-(4-methyl-2-thiazolyl)carbamoyl]acetate] the same measures were 97.2%, < 6.25 mg/kg and 5000 mg/kg.
On to `CC(C)OC(=O)C(C(=O)Nc1cccnc1)=C1SC=CS1` [18(c), Isopropyl 2-(b 1,3-dithiol-2-ylidene)-2-[N-(3-pyridyl)carbamoyl]acetate], for which the inhibition in vivo at 50 mg/kg in series [1] amounted to 100%. Also, the ED50 in series [2] was 6.25 mg/kg.
`CCOC(=O)C(C(=O)Nc1ccc(O)cc1)=C1SC=CS1` [22(b), Ethyl 2-(1,3-dithiol-2-ylidene)-2-[N-(4-hydroxyphenyl)-carbamoyl]acetate]: the inhibition in vivo at 50 mg/kg in series [1] came to 90.9%. Also, the ED50 in series [2] was < 12.5 mg/kg.
Take `CC(C)OC(=O)C(C(=O)Nc1nnn[nH]1)=C1SC=CS1` [20(b), Isopropyl 2-(1,3-dithiol-2-ylidene)-2-[N-(5-tetrazolyl)-carbamoyl]acetate]: the inhibition in vivo at 50 mg/kg in series [1] came out at 99.9%. Besides, in series [2], the ED50 was 10 mg/kg. Further, the 50% lethal dose (LD50) at 336 h in series [3] was found to be 5000 mg/kg.
In the case of `CC(C)OC(=O)C(C(=O)Nc1ccc(O)cc1)=C1SC=CS1` [22(a), Isopropyl 2-(1,3-dithiol-2-ylidene)-2-[N-(4-hydroxyphenyl)carbamoyl]acetate], in series [1], the inhibition in vivo at 50 mg/kg worked out at 99.2%. For the same compound, the ED50 in series [2] is 12.5 mg/kg. The LD50 at 336 h in series [3] was > 5000 mg/kg.
With `COC(=O)C(C(=O)Nc1ccccc1)=C1SC=CS1` [17(d), Methyl 2-(1,3-dithiol-2-ylidene)-2-(N-phenylcarbamoyl)acetate], the inhibition in vivo at 50 mg/kg in series [1] was found to be 98.2%. The ED50 in series [2] was 20 mg/kg.
For `CCOC(=O)C(C(=O)Nc1ccc(OC)cc1)=C1SC=CS1` [17(m), Ethyl 2-(1,3-dithiol-2-ylidene)-2-[N-(4-methoxyphenyl)carbamoyl]acetate] the same measures were 61.5% and 50 mg/kg.
Turning to `CC(C)OC(=O)C(C(=O)Nc1ccncc1)=C1SC=CS1` [18(d), Isopropyl 2-(1,3-dithiol-2-ylidene)-2-[N-(4-pyridyl)carbamoyl]acetate], the inhibition in vivo at 50 mg/kg in series [1] amounted to 99.7%. The ED50 in series [2] is < 6.25 mg/kg. In series [3], this compound showed an LD50 at 336 h of 1100 mg/kg.
With `CC(C)OC(=O)C(C(=O)NC1CCSC1=O)=C1SC=CS1` (centres unmarked) [14(a)], the inhibition in vivo at 50 mg/kg in series [1] turned out to be 99.2%. The ED50 in series [2] is 10 mg/kg. Besides, the LD50 at 336 h in series [3] was > 5000 mg/kg.
For `Cc1ccnc(NC(=O)C(C(=O)OC(C)C)=C2SC=CS2)c1` [18(e), Isopropyl 2-(1,3-dithiol-2-ylidene)-2-[N-(4-methyl-2-pyridyl)carbamoyl]acetate] the same measures were 99.7%, 20 mg/kg and > 5000 mg/kg.
For the compound `CC(C)OC(=O)C(C(=O)Nc1ccc(F)c(Cl)c1)=C1SC=CS1` [17(k)], the inhibition in vivo at 50 mg/kg in series [1] was found to be 93.8%. In addition, the ED50 in series [2] was 6.25 mg/kg.
Turning to `CC(C)OC(=O)C(C(=O)Nc1[nH]cnc1C(N)=O)=C1SC=CS1` [18(o), Isopropy 2-(1,3-dithiol-2-ylidene)-2-[N-(4-carboxamido-5-imidazolyl)carbamoyl]acetate], the inhibition in vivo at 50 mg/kg in series [1] stood at 98.7%. In addition, in series [2], the ED50 is 25 mg/kg. In series [3], the 50% lethal dose (LD50) at 336 h is > 5000 mg/kg.
Taken in the same sequence, the figures for `CCC(C)OC(=O)C(C(=O)Nc1ccccc1)=C1SC=CS1` (centres unmarked) [17(b), sec-Butyl 2-(1,3-dithiol-2-ylidene)-2-(N-phenylcarbamoyl)acetate] were 99.8%, 12.5 mg/kg and > 5000 mg/kg.
As to `Cc1cnc(NC(=O)C(C(=O)OC(C)C)=C2SC=CS2)s1` [19(e), Isopropyl 2-(1,3-dithiol-2-ylidene)-2-[N-(5-methyl-2-thiazolyl)carbamoyl]acetate], the inhibition in vivo at 50 mg/kg in series [1] turned out to be 9.2%. Besides, the ED50 in series [2] is 25 mg/kg.
For the compound `CCC(C)OC(=O)C(C(=O)Nc1ccc(OC)cc1)=C1SC=CS1` (centres unmarked) [17(n), sec-Butyl 2-(1,3-dithiol-2-ylidene)-2-[N-(4-methoxyphenyl)carbamoyl]acetate], the inhibition in vivo at 50 mg/kg in series [1] was determined as 96.5%. In addition, the ED50 in series [2] is 10 mg/kg. In series [3], the LD50 at 336 h is > 5000 mg/kg.
For `CCC(C)OC(=O)C(C(=O)Nc1ccccn1)=C1SC=CS1` (centres unmarked) [18(b), sec-Butyl 2-(1,3-dithiol-2-ylidene)-2-[N-(2-pyridyl)carbamoyl]acetate], the inhibition in vivo at 50 mg/kg in series [1] turned out to be 100%. In addition, the ED50 in series [2] is 7 mg/kg. The compound further yielded a 50% lethal dose (LD50) at 336 h in series [3] of 5000 mg/kg.
On to `CC(C)OC(=O)C(C(=O)Nc1cc[nH]n1)=C1SC=CS1` [20(a), Isopropyl 2-(1,3-dithiol-2-ylidene)-2-[N-(3-pyrazolyl)-carbamoyl]acetate], for which the inhibition in vivo at 50 mg/kg in series [1] was found to be 102%. In series [2], the median effective dose (ED50) is 8 mg/kg. The compound further registered an LD50 at 336 h in series [3] of 5000 mg/kg.
Taken in the same sequence, the figures for `CC(C)OC(=O)C(C(=O)Nc1ccccn1)=C1SC=CS1` [18(a), Isopropyl 2-(1,3-dithiol-2-ylidene)-2-[N-(2-pyridyl)carbamoyl]acetate] were 99.8%, < 6.25 mg/kg and 4200 mg/kg.
Taken in the same sequence, the figures for `CC(C)OC(=O)C(C(=O)Nc1nncs1)=C1SC=CS1` [18(i), Isopropyl 2-(1,3-dithiol-2-ylidene)-2-[N-(1,3,4-thiadiazol-2-yl)carbamoyl]acetate] were 100%, < 6.25 mg/kg and > 5000 mg/kg.
For `Cc1cc(NC(=O)C(C(=O)OC(C)C)=C2SC=CS2)no1` [18(h), Isopropyl 2-(1,3-dithiol-2-ylidene)-2-[N-(5-methyl-3-isoxazolyl)carbamoyl]acetate] the same measures were 100%, 9 mg/kg and > 5000 mg/kg.
Regarding `CCOC(=O)C(C(=O)Nc1nccs1)=C1SC=CS1` [19(b)], in series [1], the inhibition in vivo at 50 mg/kg stood at 101%. Further, in series [2], the ED50 was 6.25 mg/kg. In series [3], this compound gave an LD50 at 336 h of 2500 mg/kg.
Taken in the same sequence, the figures for `CCOC(=O)C(C(=O)Nc1ccccc1)=C1SC=CS1` [17(c), Ethyl 2-(1,3-dithiol-2-ylidene)-2-(N-phenylcarbamoyl)acetate] were 100%, 8 mg/kg and > 5000 mg/kg.
Taken in the same sequence, the figures for `CC(C)OC(=O)C(C(=O)Nc1ccccc1)=C1SC=CS1` [17(a), Isopropyl 2-(1,3-dithiol-2-ylidene)-2-(N-phenylcarbamoyl)acetate] were 100%, 8 mg/kg and 3000 mg/kg.
